Measurements published in patent publication US11866450B2, “Modulators of Cystic Fibrosis Transmembrane Conductance regulator, pharmaceutical compositions, methods of treatment, and process for making the modulators” (priority 2018, dated 2024).

Biological target: CFTR-mediated chloride transport (Homo sapiens, UniProt P13569)
Assay type: cell-based
Conditions: enteroid cells incubated with test compound 18-24 hours, acute 10 μM forskolin and 300 nM Compound III; for Max. Activity: % of chloride transport with 3 μM Compound A, 3 μM Compound II and 300 nM acute Compound III triple combination control
Method in brief: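 Human intestinal enteroid cells incubated with compound 18–24 h at 37° C., then membrane potential dye (FLIPR) read 15 min after chloride-free stimulation with 10 μM forskolin, 100 μM IBMX and 300 nM Compound III. AUC expressed as % of triple-combination control (3 μM Compound A, 3 μM Compound II, 300 nM Compound III).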

Chain of CFTR-mediated chloride transport (P13569 whole entry, looked up): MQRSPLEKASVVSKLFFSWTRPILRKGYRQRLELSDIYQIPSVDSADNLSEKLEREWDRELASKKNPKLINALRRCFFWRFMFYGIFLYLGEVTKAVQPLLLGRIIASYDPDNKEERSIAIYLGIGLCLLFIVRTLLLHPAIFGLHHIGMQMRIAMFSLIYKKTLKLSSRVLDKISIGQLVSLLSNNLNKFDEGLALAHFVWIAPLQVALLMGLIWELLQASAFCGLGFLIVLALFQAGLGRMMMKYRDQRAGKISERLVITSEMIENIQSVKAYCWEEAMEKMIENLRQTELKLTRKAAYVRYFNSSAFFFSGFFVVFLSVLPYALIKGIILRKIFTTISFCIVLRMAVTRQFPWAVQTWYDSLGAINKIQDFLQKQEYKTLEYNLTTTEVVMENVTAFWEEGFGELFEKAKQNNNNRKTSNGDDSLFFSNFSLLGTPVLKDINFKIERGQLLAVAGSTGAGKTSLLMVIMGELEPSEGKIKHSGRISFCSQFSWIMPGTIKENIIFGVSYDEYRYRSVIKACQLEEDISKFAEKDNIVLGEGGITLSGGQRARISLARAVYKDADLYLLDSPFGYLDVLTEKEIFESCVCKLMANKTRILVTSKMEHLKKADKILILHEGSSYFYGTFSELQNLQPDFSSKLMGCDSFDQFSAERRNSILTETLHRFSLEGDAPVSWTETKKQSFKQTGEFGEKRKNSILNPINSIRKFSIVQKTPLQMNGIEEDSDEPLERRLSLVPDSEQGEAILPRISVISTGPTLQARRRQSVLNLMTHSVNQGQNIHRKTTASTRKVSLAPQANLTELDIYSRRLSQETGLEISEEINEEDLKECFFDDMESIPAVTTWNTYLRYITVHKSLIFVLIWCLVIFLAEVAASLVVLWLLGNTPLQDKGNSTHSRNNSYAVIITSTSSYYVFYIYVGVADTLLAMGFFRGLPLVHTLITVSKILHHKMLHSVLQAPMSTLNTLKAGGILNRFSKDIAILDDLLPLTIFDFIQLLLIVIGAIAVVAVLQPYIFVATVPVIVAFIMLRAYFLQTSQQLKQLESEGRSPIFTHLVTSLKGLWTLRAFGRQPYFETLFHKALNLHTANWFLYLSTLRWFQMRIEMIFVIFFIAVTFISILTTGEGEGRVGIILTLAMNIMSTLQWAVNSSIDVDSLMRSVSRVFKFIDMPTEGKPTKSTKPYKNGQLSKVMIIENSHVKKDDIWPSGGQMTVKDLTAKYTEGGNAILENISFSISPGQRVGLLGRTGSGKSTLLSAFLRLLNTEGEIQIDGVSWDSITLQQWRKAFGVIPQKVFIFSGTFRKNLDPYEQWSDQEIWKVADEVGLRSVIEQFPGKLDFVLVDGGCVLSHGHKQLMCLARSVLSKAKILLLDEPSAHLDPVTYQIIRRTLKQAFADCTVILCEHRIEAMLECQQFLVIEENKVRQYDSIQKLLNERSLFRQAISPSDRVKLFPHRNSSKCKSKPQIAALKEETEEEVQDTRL

Structure (SMILES)	EC50 [µM]	Max. Activity
CC(C)(C)COc1ccn(-c2ccc3c(n2)N2C[C@H](CCNc4cccc(n4)S(=O)(=O)NC3=O)CC2(C)C)n1 (single isomer, unassigned) [Compound 2, 11-[3-(2,2-dimethylpropoxy)-1H-pyrazol-1-yl]-7,7-dimethyl-17λ^6-thia-2,8,10,16,22-pentaazatetracyclo[16.3.1.15,8.09,14]tricosa-1(21),9(14),10,12,18(22),19-hexaene-15,17,17-trione]	1 to 3	+++ (+++ is >60%)
CC1(C)CC[C@H]2CCCCNc3cccc(n3)S(=O)(=O)NC(=O)c3ccc(-n4ccc(OCCC5(C(F)(F)F)CC5)n4)nc3N21 (single isomer, unassigned) [Compound 46, 12,12-dimethyl-8-(3-{2-[1-(trifluoromethyl)cyclopropyl]ethoxy}-1H-pyrazol-1-yl)-2λ^6-thia-3,9,11,20,25-pentaazatetracyclo[19.3.1.05,10.011,15]pentacosa-1(24),5,7,9,21(25),22-hexaene-2,2,4-trione]	> 3	+ (+ is <30%)
[2H]c1ccc2nc1NCCC[C@@H]1CN(c3nc(-n4ccc(OCCC5C6(CC6)C56CC6)n4)ccc3C(=O)NS2(=O)=O)C(C)(C)C1 [Compound 300, (14S)-8-[3-(2-{dispiro[2.0.2.1]heptan-7-yl}ethoxy)-1H-pyrazol-1-yl]-12,12-dimethyl(20-deuterio)-2λ^6-thia-3,9,11,18,23-pentaazatetracyclo[17.3.1.111,14.05,10]tetracosa-1(23),5,7,9,19,21-hexaene-2,2,4-trione]	< 1	+++ (+++ is >60%)
CC1(C)C[C@@H]2CCCNc3cccc(n3)S(=O)(=O)NC(=O)c3ccc(-n4ccc(OC[C@@H](O)C5C6(CC6)C56CC6)n4)nc3N1C2 (single isomer, unassigned) [Compound 294]	1 to 3	+++ (+++ is >60%)
Cc1cc2nn1CCC[C@H]1CN(c3nc(-n4ccc(OCCC5(C(F)(F)F)CC5)n4)ccc3C(=O)NS2(=O)=O)C(C)(C)C1 (single isomer, unassigned) [Compound 150, 13,20,20-Trimethyl-4-(3-{2-[1-(trifluoromethyl)cyclopropyl]ethoxy}-1H-pyrazol-1-yl)-10λ^6-thia-1,3,9,14,22-pentaazatetracyclo[16.2.1.111,14.02,7]docosa-2,4,6,11(22),12-pentaene-8,10,10-trione]	1 to 3	+ (+ is <30%)
CC1(C)C[C@@H]2CCCNc3cccc(n3)S(=O)(=O)NC(=O)c3ccc(N4CCN(C[C@H]5CC[C@@H](C(F)(F)F)CC5)C4=O)nc3N1C2 (single isomer, unassigned) [Compound 239]	< 1	+ (+ is <30%)
CN1CCC[C@@H]2CCC(C)(C)N2c2nc(-n3ccc(OCCC4(C(F)(F)F)CC4)n3)ccc2C(=O)NS(=O)(=O)c2cccc1n2 [Compound 11, (15R)-12,12,19-trimethyl-8-(3-{2-[1-(trifluoromethyl)cyclopropyl]ethoxy}-1H-pyrazol-1-yl)-2λ^6-thia-3,9,11,19,24-pentaazatetracyclo[18.3.1.05,10.011,15]tetracosa-1(24),5(10),6,8,20,22-hexaene-2,2,4-trione]	< 1	+++ (+++ is >60%)
CC1(C)C[C@@H]2CCCNc3cccc(n3)S(=O)(=O)NC(=O)c3ccc(N4CC[C@H](CCC5C6(CC6)C56CC6)C4=O)nc3N1C2 (single isomer, unassigned) [Compound 177]	< 1	++ (++ is 30-60%)
CC1(C)C[C@@H]2CN1c1nc(-n3ccc(OCCC(C4CC4)C4CC4)n3)ccc1C(=O)NS(=O)(=O)c1cccc(n1)NCCO2 (single isomer, unassigned) [Compound 163, 8-[3-(3,3-dicyclopropylpropoxy)-1H-pyrazol-1-yl]-12,12-dimethyl-15-oxa-2λ^6-thia-3,9,11,18,23-pentaazatetracyclo[17.3.1.111,14.05,10]tetracosa-1(23),5,7,9,19,21-hexaene-2,2,4-trione]	< 1	++ (++ is 30-60%)
CC1(C)C[C@@H]2CCCNc3cccc(n3)S(=O)(=O)NC(=O)c3ccc(N4CC[C@H](OCCC5(C(F)(F)F)CC5)C4=O)nc3N1C2 (single isomer, unassigned) [Compound 173]	< 1	+++ (+++ is >60%)
CC1(C)CC[C@H]2CCCNc3cccc(n3)S(=O)(=O)NC(=O)c3ccc(-n4ccc(OCCC(C5CC5)C5CC5)n4)nc3N21 (single isomer, unassigned) [Compound 136, 8-[3-(3,3-dicyclopropylpropoxy)-1H-pyrazol-1-yl]-12,12-dimethyl-2λ^6-thia-3,9,11,19,24-pentaazatetracyclo[18.3.1.05,10.011,15]tetracosa-1(23),5(10),6,8,20(24),21-hexaene-2,2,4-trione]	< 1	+++ (+++ is >60%)
CC1(C)C[C@H]2CCCn3ccc(n3)S(=O)(=O)NC(=O)c3ccc(N4CC[C@H](CCCC5(C(F)(F)F)CC5)C4=O)nc3N1C2 (single isomer, unassigned) [Compound 182, 20,20-dimethyl-4-(2-oxo-3-{3-[1-(trifluoromethyl)cyclopropyl]propyl}pyrrolidin-1-yl)-10λ^6-thia-1,3,9,14,22-pentaazatetracyclo[16.2.1.111,14.02,7]docosa-2,4,6,11(22),12-pentaene-8,10,10-trione]	< 1	++ (++ is 30-60%)
CC1(C)C[C@H]2CCCCn3ccc(n3)S(=O)(=O)NC(=O)c3ccc(-n4ccc(OCCC5(C(F)(F)F)CC5)n4)nc3N1C2 (single isomer, unassigned) [Compound 45, 21,21-dimethyl-4-(3-{2-[1-(trifluoromethyl)cyclopropyl]ethoxy}-1H-pyrazol-1-yl)-10λ^6-thia-1,3,9,14,23-pentaazatetracyclo[17.2.1.111,14.02,7]tricosa-2,4,6,11(23),12-pentaene-8,10,10-trione]	< 1	+++ (+++ is >60%)
CC1(C)C[C@@H]2CCCNc3cccc(n3)S(=O)(=O)NC(=O)c3ccc(N4CCN(CCC(C)(C)C(F)(F)F)C4=O)nc3N1C2 [Compound 223, (14S)-12,12-Dimethyl-8-[2-oxo-3-(4,4,4-trifluoro-3,3-dimethylbutyl)imidazolidin-1-yl]-2λ^6-thia-3,9,11,18,23-pentaazatetracyclo[17.3.1.111,14.05,10]tetracosa-1(22),5,7,9,19(23),20-hexaene-2,2,4-trione]	< 1	+++ (+++ is >60%)
CC1(C)C[C@H]2CCCCOc3ccc(cc3)S(=O)(=O)NC(=O)c3ccc(-n4ccc(OCCC5(C(F)(F)F)CC5)n4)nc3N1C2 (single isomer, unassigned) [Compound 96, 12,12-dimethyl-8-(3-{2-[1-(trifluoromethyl)cyclopropyl]ethoxy}-1H-pyrazol-1-yl)-19-oxa-2λ^6-thia-3,9,11-triazatetracyclo[18.2.2.111,14.05,10]pentacosa-1(22),5,7,9,20,23-hexaene-2,2,4-trione]	> 3	+ (+ is <30%)
C[C@@H]1CC[C@H]2CN(c3nc(-n4ccc(OCCC5(C(F)(F)F)CC5)n4)ccc3C(=O)NS(=O)(=O)c3cccc(n3)N1)C(C)(C)C2 (single isomer, unassigned) [Compound 60, 12,12,17-trimethyl-8-(3-{2-[1-(trifluoromethyl)cyclopropyl]ethoxy}-1H-pyrazol-1-yl)-2λ^6-thia-3,9,11,18,23-pentaazatetracyclo[17.3.1.111,14.05,10]tetracosa-1(23),5(10),6,8,19,21-hexaene-2,2,4-trione]	< 1	+++ (+++ is >60%)
CC1(C)C[C@H]2CCCCc3cccc(n3)S(=O)(=O)NC(=O)c3ccc(-n4ccc(OCCC5(C(F)(F)F)CC5)n4)nc3N1C2 (single isomer, unassigned) [Compound 86, 12,12-dimethyl-8-(3-{2-[1-(trifluoromethyl)cyclopropyl]ethoxy}-1H-pyrazol-1-yl)-2λ^6-thia-3,9,11,23-tetraazatetracyclo[17.3.1.111,14.05,10]tetracosa-1(23),5,7,9,19,21-hexaene-2,2,4-trione]	> 3	+ (+ is <30%)
CC1(C)C[C@H]2CCCCNc3ccc(cn3)S(=O)(=O)NC(=O)c3ccc(-n4ccc(OCC5C6(CC6)C56CC6)n4)nc3N1C2 (single isomer, unassigned) [Compound 120, 8-[3-({dispiro[2.0.2.1]heptan-7-yl}methoxy)-1H-pyrazol-1-yl]-12,12-dimethyl-2λ^6-thia-3,9,11,19,21-pentaazatetracyclo[18.2.2.111,14.05,10]pentacosa-1(23),5,7,9,20(24),21-hexaene-2,2,4-trione]	< 1	++ (++ is 30-60%)
CC1(C)C[C@H]2CNc3cccc(n3)S(=O)(=O)NC(=O)c3ccc(-n4ccc(OCCC5(C(F)(F)F)CC5)n4)nc3N1C2 (single isomer, unassigned) [Compound 25, 6,6-dimethyl-10-(3-{2-[1-(trifluoromethyl)cyclopropyl]ethoxy}-1H-pyrazol-1-yl)-16λ^6-thia-2,7,9,15,21-pentaazatetracyclo[15.3.1.14,7.08,13]docosa-1(20),8,10,12,17(21),18-hexaene-14,16,16-trione]	< 1	++ (++ is 30-60%)
CC1(C)C[C@H]2CCCCCNc3cccc(n3)S(=O)(=O)NC(=O)c3ccc(-n4ccc(OCCC5(C(F)(F)F)CC5)n4)nc3N1C2 (single isomer, unassigned) [Compound 63, 12,12-dimethyl-8-(3-{2-[1-(trifluoromethyl)cyclopropyl]ethoxy}-1H-pyrazol-1-yl)-2λ^6-thia-3,9,11,20,25-pentaazatetracyclo[19.3.1.111,14.05,10]hexacosa-1(24),5,7,9,21(25),22-hexaene-2,2,4-trione]	< 1	+++ (+++ is >60%)
